From ChEMBL document CHEMBL4842368, “Berotralstat (BCX7353): Structure-Guided Design of a Potent, Selective, and Oral Plasma Kallikrein Inhibitor to Prevent Attacks of Hereditary Angioedema (HAE)” (J Med Chem, 2021)
≈ marks a conversion by molar mass, not a printed value.

Assays:
Plasma kallikrein [1] = biological target: T1, Plasma kallikrein (Homo sapiens, UniProt P03952); assay: Inhibition of purified human plasma kallikrein using H-D-Pro-Phe-Arg-pNA.2HCl as substrate measured after 3 mins by microplate reader analysis
T1 sequence (P03952 20-390 limits assumed): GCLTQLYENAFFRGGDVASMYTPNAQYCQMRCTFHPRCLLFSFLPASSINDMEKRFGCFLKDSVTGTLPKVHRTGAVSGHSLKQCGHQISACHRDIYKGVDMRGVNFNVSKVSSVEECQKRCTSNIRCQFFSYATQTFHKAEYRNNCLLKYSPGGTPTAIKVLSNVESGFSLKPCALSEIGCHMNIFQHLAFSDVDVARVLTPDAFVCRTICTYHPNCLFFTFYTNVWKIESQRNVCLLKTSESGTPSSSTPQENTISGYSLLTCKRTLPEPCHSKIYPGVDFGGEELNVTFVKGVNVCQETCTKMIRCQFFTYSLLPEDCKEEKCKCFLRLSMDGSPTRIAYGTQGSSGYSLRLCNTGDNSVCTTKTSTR
T1 sequence (P03952 391-638 limits assumed): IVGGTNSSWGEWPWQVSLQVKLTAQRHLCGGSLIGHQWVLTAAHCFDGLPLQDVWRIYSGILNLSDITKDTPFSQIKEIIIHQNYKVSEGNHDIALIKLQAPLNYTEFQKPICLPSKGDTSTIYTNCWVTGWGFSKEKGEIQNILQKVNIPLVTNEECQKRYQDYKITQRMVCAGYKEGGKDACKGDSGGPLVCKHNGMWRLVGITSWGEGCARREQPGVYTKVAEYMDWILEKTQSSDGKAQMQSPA

Plasma kallikrein [2] = biological target: T1, Plasma kallikrein; assay: Inhibition of purified human plasma kallikrein using H-D-Pro-Phe-Arg-pNA.2HCl as substrate at 5 uM measured after 3 mins by microplate reader analysis relative to control
Plasma kallikrein [3] = biological target: T1, Plasma kallikrein; assay: Inhibition of endogenous human plasma kallikrein using Z-Phe-Arg-AMC.HCl as substrate measured after 5 mins by microplate reader analysis
[4] = Cmax in rat at 5 mg/kg, po; assay type: ADME, organism-based; set-up: route oral, dose 5 mg/kg; conditions: in vivo
[5] = AUC in rat at 5 mg/kg, po after 12 hrs; assay type: ADME, organism-based; set-up: route oral, time 12 hrs, dose 5 mg/kg; conditions: in vivo
Homo sapiens = organism: Homo sapiens; assay: Selectivity index, ratio of IC50 for human trypsin to IC50 for human plasma kallikrein
Plasma kallikrein [6] = biological target: T1, Plasma kallikrein; assay: Inhibition of purified human plasma kallikrein assessed as inhibition constant using H-D-Pro-Phe-Arg-pNA.2HCl as substrate measured after 3 mins by microplate reader analysis
[7] = Solubility of compound at pH 4; assay type: physicochemical; conditions: buffer
[8] = Solubility of compound at pH 7; assay type: physicochemical; conditions: buffer

| SMILES | IC50 (Plasma kallikrein [1]) [µM] | IC50 (Plasma kallikrein [3]) [µM] | other results |
| --- | --- | --- | --- |
| NCc1cccc(-n2cccn2)c1 | 3400 |  |  |
| COC(c1ccccc1)c1ccc(F)c(NC(=O)c2cc(C(F)(F)F)nn2-c2cccc(CN)c2)c1 (stereo not drawn) | 0.231 |  |  |
| CS(=O)(=O)c1cccc(-c2ccc(NC(=O)c3cc(C(F)(F)F)nn3-c3cccc(CN)c3)c(F)c2)c1 | 1.23 |  |  |
| NCc1cccc(-n2nc(C(F)(F)F)cc2C(=O)Nc2ccc(N3CCCCC3)cc2F)c1 |  |  | inhibition (Plasma kallikrein [2]): 7.5% |
| N#Cc1ccc(C(NCC2CC2)c2ccc(F)c(NC(=O)c3cc(C(F)(F)F)nn3-c3cccc(CN)c3)c2)cc1 (stereo not drawn) | 0.0072 | 0.019 |  |
| NCc1cccc(-n2nc(C(F)(F)F)cc2C(=O)Nc2ccc(-c3ccc(C(N)=O)cc3)cc2F)c1 | 0.395 |  |  |
| NCc1cccc(-n2nc(C(F)(F)F)cc2C(=O)Nc2ccc(-c3ccccc3)cc2)c1 | 2.9 |  |  |
| NCc1cccc(-n2nc(C(F)(F)F)cc2C(=O)Nc2ccc(F)c(C(OCC3CC3)c3ccccc3)c2)c1 (stereo not drawn) | 0.708 | > 1 |  |
| NCc1cccc(-n2nc(C(F)(F)F)cc2C(=O)Nc2cc(F)cc(C(OCC3CC3)c3ccccc3)c2)c1 (stereo not drawn) | 0.1 | > 1 |  |
| NCc1cccc(-n2ccc(C(F)(F)F)n2)c1 | 1000 |  |  |
| NCc1cccc(-n2nc(C(F)(F)F)cc2C(=O)Nc2ccccc2F)c1 | 27.3 |  |  |
| NCc1cccc(-n2nc(C(F)(F)F)cc2C(=O)Nc2cc(C(NCC3CC3)c3ccncc3)ccc2F)c1 (stereo not drawn) | 0.0052 | 0.0167 | Cmax [4]: 22 ng/mL; AUC at 12 h [5]: 73 ng·h/mL |
| NCc1cccc(-n2nc(C(F)(F)F)cc2C(=O)Nc2ccc(-c3ccccc3)cc2F)c1 | 1.02 |  |  |
| NCc1cccc(-n2nc(C(F)(F)F)cc2C(=O)Nc2cc(C(NCC3CC3)c3ccccn3)ccc2F)c1 (stereo not drawn) | 0.0104 | 0.0267 | Cmax [4]: 45 ng/mL; AUC at 12 h [5]: 131 ng·h/mL |
| C=Cc1cc(C(=O)Nc2ccc(C(=N)N)cc2)c(-c2ccc(C(=O)NCC3CC3)nc2C(=O)O)cc1OC [AVORALSTAT] |  |  | Ratio IC50 (Homo sapiens): 8192; Ki (Plasma kallikrein [6]): 0.00026 µM; solubility [7]: 47 mg/mL (≈ 91.5 mM); solubility [8]: 1.09 mg/mL (≈ 2.12 mM) |
| NCc1cccc(-n2nc(C(F)(F)F)cc2C(=O)Nc2ccc(C3CC3)cc2F)c1 | 0.577 |  |  |
